Key:
[1] = tested on: aerosol administered histamine challenge; experiment: protection of conscious guinea pigs from an aerosol administered histamine challenge; type: in vivo, guinea pig; settings: 30 minutes before continuous aerosol of histamine
Experimental: The compounds were examined for their ability to protect conscious guinea pigs from an aerosol administered histamine challenge. The compounds were given 30 minutes before the animals were challenged with a continuous aerosol of histamine.

[2] = tested on: pentagastrin-stimulated gastric acid secretion; experiment: inhibition of pentagastrin-stimulated gastric acid secretion in the perfused rat stomach preparation (Ghosh and Schild preparation); type: in vivo; settings: 500 μg/kg, intravenously
Experimental: The anti-secretory activity of the compounds was determined by their inhibition of pentagastrin-stimulated gastric acid secretion in the perfused rat stomach preparation (Ghosh and Schild preparation).

mice = experiment: toxicity in mice; type: in vivo; settings: dosed up to 900 mg/kg, subcutaneously
[3] = tested on: 5-hydroxytryptamine-induced bronchoconstriction; experiment: inhibition of 5-hydroxytryptamine-induced bronchoconstriction in the anaesthetised, artificially respired guinea pig (Konzett-Rossler preparation); type: in vivo; settings: Cavia porcellus, iv, intravenously, read-out: inhibition of bronchoconstriction, IC50
From the text: The compounds were examined for their ability to inhibit 5-hydroxytryptamine-induced bronchoconstriction in the anaesthetised, artificially respired guinea pig (Konzett-Rossler preparation).

SMILES | time taken to elicit a pre-convulsive cough compared with control animals ([1]; 2.5 mg/kg, intra-peritoneally) | time taken to elicit a pre-convulsive cough compared with control animals ([1]; 10 mg/kg orally) | inhibition of acid secretion [2] | toxic symptoms (mice) | ED50 [3] [mg/kg]
CCCCCCC(C)(O)CCN1C(=O)C(C)(C)C(=O)C1CCCCCCC(=O)O (centres unmarked) [2-(6'-Carboxy-n-hexyl)-4,4-dimethyl-1-(3"-hydroxy-3"-methyl-n-nonyl)pyrrolidin-3,5-dione] | significantly prolonged | significantly prolonged |  |  | 
CCCCCCC(C)(O)CCN1C(=O)C(C)(C)C(=O)C1CCCCCCC(=O)OCC (centres unmarked) [4,4-Dimethyl-2-(6'-ethoxycarbonyl-n-hexyl)-1-(3"-hydroxy-3"-methyl-n-nonyl)-pyrrolidin-3,5-dione] |  |  | inhibited acid secretion | No toxic symptoms were observed | ~0.01

Source: patent US4187312A, “3-Hydroxy-4,4-dimethyl-5-pyrrolidone derivatives” (Beecham Group Limited, priority 1975, dated 1980)
